Source: ChEMBL document CHEMBL3885861, “Open TG-GATES”

Organism: Rattus norvegicus
Assay: Open TG-GATES - Regimen: Daily Repeat
Assay type: toxicity, organism-based, Sprague-Dawley
Design: regimen Daily Repeat, gender Male, age 6 weeks
Conditions: in vivo, po, route gavage; for gamma-GTP / ALP / ALT / AST / CRE / DBIL / GLC / IP / K / LDH / Na / PL / RALB / TBIL / TC / TG / TP: tissue Plasma; for APTT / Bas / Eos / Fbg / Hb / Ht / Lym / MCHC / MCV / Mono / Neu / PT / Plat / RBC / Ret / WBC: tissue Blood; for KIDNEY_L / KIDNEY_R / KIDNEY_TOTAL: tissue Kidney; for LIVER: tissue Liver
[1] = 100 mg/kg, 72 h, dose level Low, time 3 day
[2] = 100 mg/kg, […], dose level Low, time 7 day
[3] = 100 mg/kg, […], dose level Low, time 14 day
[4] = 100 mg/kg, […], dose level Low, time 28 day

C#C[C@]1(O)CC[C@H]2[C@@H]3CCC4=Cc5oncc5C[C@]4(C)[C@H]3CC[C@@]21C [DANAZOL]
gamma-GTP (0 mg/kg, […], dose level Control, time 28 day): 3.4 IU/L
TERMINAL_BW [1]: 235.6 g
APTT [1]: 23.6 s
Bas [1]: 0%
Eos [1]: 1%
Fbg [1]: 344.8 mg/dL
Hb [1]: 13.5 g/dL
Ht [1]: 41%
Lym [1]: 77%
MCHC [1]: 32.8%
MCV [1]: 63 fL
Mono [1]: 2.8%
Neu [1]: 19%
PT [1]: 16.3 s
Plat [1]: 115.1 x10_4/uL
RBC [1]: 651.2 x10_4/ul
Ret [1]: 6.3%
WBC [1]: 91.5 x10_2/uL
KIDNEY_L [1]: 1 g
KIDNEY_R [1]: 1 g
KIDNEY_TOTAL [1]: 2.1 g
LIVER [1]: 11.7 g
ALP [1]: 1493.6 IU/L
ALT [1]: 45.6 IU/L
AST [1]: 72.4 IU/L
CRE [1]: 0.2 mg/dL
DBIL [1]: 0 mg/dL
GLC [1]: 187.2 mg/dL
IP [1]: 7 mg/dL
K [1]: 4.3 meq/L
LDH [1]: 168.2 IU/L
Na [1]: 143 meq/L
PL [1]: 131.2 mg/dL
RALB [1]: 3.1 g/dL
TBIL [1]: 0 mg/dL
TC [1]: 55.2 mg/dL
TG [1]: 161.4 mg/dL
TP [1]: 5.7 g/dL
gamma-GTP [1]: 1.8 IU/L
TERMINAL_BW [2]: 261.4 g
TERMINAL_BW [3]: 310 g
TERMINAL_BW [4]: 405.6 g
APTT [2]: 25 s
Bas [2]: 0%
Eos [2]: 0.4%
Fbg [2]: 318 mg/dL
Hb [2]: 13.7 g/dL
Ht [2]: 40.4%
Lym [2]: 84%
MCHC [2]: 33.9%
MCV [2]: 60.1 fL
Mono [2]: 2%
Neu [2]: 13%
PT [2]: 15.7 s
Plat [2]: 117.6 x10_4/uL
RBC [2]: 672.6 x10_4/ul
Ret [2]: 5.1%
WBC [2]: 112.4 x10_2/uL
APTT [3]: 26.6 s
Bas [3]: 0%
Eos [3]: 0.8%
Fbg [3]: 354.4 mg/dL
Hb [3]: 14.5 g/dL
Ht [3]: 41.1%
Lym [3]: 84.8%
MCHC [3]: 35.2%
MCV [3]: 60.3 fL
Mono [3]: 1.8%
Neu [3]: 12%
PT [3]: 16.2 s
Plat [3]: 134.9 x10_4/uL
RBC [3]: 681.2 x10_4/ul
Ret [3]: 3.3%
APTT [4]: 26.9 s
Bas [4]: 0%
Eos [4]: 1%
Fbg [4]: 326.6 mg/dL
Hb [4]: 14.5 g/dL
Ht [4]: 42.4%
Lym [4]: 78.8%
MCHC [4]: 34.2%
MCV [4]: 56.1 fL
Mono [4]: 1.6%
Neu [4]: 17.6%
PT [4]: 17.1 s
Plat [4]: 109.1 x10_4/uL
RBC [4]: 756.2 x10_4/ul
Ret [4]: 2.4%
WBC [4]: 85.7 x10_2/uL
KIDNEY_L [2]: 1.1 g
KIDNEY_R [2]: 1.1 g
KIDNEY_TOTAL [2]: 2.2 g
KIDNEY_L [3]: 1.3 g
KIDNEY_R [3]: 1.3 g
KIDNEY_TOTAL [3]: 2.6 g
KIDNEY_L [4]: 1.5 g
KIDNEY_R [4]: 1.5 g
KIDNEY_TOTAL [4]: 2.9 g
LIVER [2]: 12.7 g
LIVER [3]: 14.9 g
LIVER [4]: 18.3 g
ALP [2]: 1505.8 IU/L
ALT [2]: 39.6 IU/L
AST [2]: 65 IU/L
CRE [2]: 0.2 mg/dL
DBIL [2]: 0 mg/dL
GLC [2]: 181.8 mg/dL
IP [2]: 6.2 mg/dL
K [2]: 4.4 meq/L
LDH [2]: 139.6 IU/L
Na [2]: 143.2 meq/L
PL [2]: 128.4 mg/dL
RALB [2]: 3 g/dL
TBIL [2]: 0.002 mg/dL
TC [2]: 51.8 mg/dL
TG [2]: 140.4 mg/dL
TP [2]: 5.6 g/dL
gamma-GTP [2]: 2.2 IU/L
ALP [3]: 1681.6 IU/L
ALT [3]: 38.4 IU/L
AST [3]: 57.4 IU/L
CRE [3]: 0.2 mg/dL
DBIL [3]: 0 mg/dL
GLC [3]: 182.8 mg/dL
IP [3]: 6.8 mg/dL
K [3]: 4.1 meq/L
LDH [3]: 154 IU/L
Na [3]: 143.6 meq/L
PL [3]: 132.8 mg/dL
RALB [3]: 3.1 g/dL
TBIL [3]: 0 mg/dL
TC [3]: 49 mg/dL
TG [3]: 177.6 mg/dL
TP [3]: 6 g/dL
gamma-GTP [3]: 2.6 IU/L
ALP [4]: 1348.8 IU/L
ALT [4]: 39.8 IU/L
AST [4]: 59.2 IU/L
CRE [4]: 0.2 mg/dL
DBIL [4]: 0 mg/dL
GLC [4]: 191.4 mg/dL
IP [4]: 6.1 mg/dL
K [4]: 3.9 meq/L
LDH [4]: 121.8 IU/L
Na [4]: 142.8 meq/L
PL [4]: 142.4 mg/dL
RALB [4]: 3 g/dL
TBIL [4]: 0 mg/dL
TC [4]: 46.6 mg/dL
TG [4]: 334.4 mg/dL
TP [4]: 6.2 g/dL
gamma-GTP [4]: 3.2 IU/L
